From patent US9738634B2, “Heterocyclic amide compound and herbicide” (SYNGENTA PARTICIPATIONS AG, priority 2013, dated 2017)

Experiments:
Assay type in all cases: in vivo
Conditions in all cases: treatment dosage 320 g/ha
barnyard grass [1] = assay: Test Example 1: weedkilling efficacy, preemergent weed treatment in the submerged state; A: barnyard grass
Summary of the method: (§1)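 Visual scores against set criteria were taken 3 weeks after treatment. Compounds, as diluted emulsions at specified g/ha, went onto the water surface of 4 cm-flooded alluvial soil pots on the day weeds were sown and 2.5-leaf rice was transplanted; greenhouse held 25–30 °C.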

bulrush [2] = assay: Test Example 1: weedkilling efficacy, preemergent weed treatment in the submerged state; B: bulrush
Summary of the method: as §1

oval-leafed pondweed [3] = assay: Test Example 1: weedkilling efficacy, preemergent weed treatment in the submerged state; C: oval-leafed pondweed
Summary of the method: as §1

transplanted rice = assay: Test Example 1: preemergent weed treatment in the submerged state, effect on crop; a: transplanted rice
Summary of the method: as §1

barnyard grass [4] = assay: Test Example 2: weedkilling efficacy, growth period weed treatment in the submerged state; A: barnyard grass
Summary of the method: (§2)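 Barnyard grass, bulrush and oval-leafed pondweed sown in alluvial soil under 4 cm flooding, greenhouse 25 to 30° C. At 1-2 leaf stage, water-diluted emulsion applied to the water surface at stated g/ha dosages; effects scored 3 weeks later.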

bulrush [5] = assay: Test Example 2: weedkilling efficacy, growth period weed treatment in the submerged state; B: bulrush
Summary of the method: as §2

oval-leafed pondweed [6] = assay: Test Example 2: weedkilling efficacy, growth period weed treatment in the submerged state; C: oval-leafed pondweed
Summary of the method: as §2

crabgrass [7] = assay: Test Example 3: weedkilling efficacy through soil treatment; D: crabgrass
Summary of the method: (§3)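 Crop and weed responses were judged three weeks after a uniform surface spray of the water-diluted emulsion at the given g/ha rate. Seeds sat beneath about 1.5 cm of sterilized diluvial soil, and boxes stood in a greenhouse at 25 to 30° C.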

green foxtail [8] = assay: Test Example 3: weedkilling efficacy through soil treatment; E: green foxtail
Summary of the method: as §3

barnyard grass [9] = assay: Test Example 3: weedkilling efficacy through soil treatment; F: barnyard grass
Summary of the method: as §3

wild oat [10] = assay: Test Example 3: weedkilling efficacy through soil treatment; G: wild oat
Summary of the method: as §3

black-grass [11] = assay: Test Example 3: weedkilling efficacy through soil treatment; H: black-grass
Summary of the method: as §3

Italian ryegrass [12] = assay: Test Example 3: weedkilling efficacy through soil treatment; I: Italian ryegrass
Summary of the method: as §3

common wind-grass [13] = assay: Test Example 3: weedkilling efficacy through soil treatment; J: common wind-grass
Summary of the method: as §3

Indian mallow [14] = assay: Test Example 3: weedkilling efficacy through soil treatment; K: Indian mallow
Summary of the method: as §3

redroot pigweed [15] = assay: Test Example 3: weedkilling efficacy through soil treatment; L: redroot pigweed
Summary of the method: as §3

fig-leafed goosefoot [16] = assay: Test Example 3: weedkilling efficacy through soil treatment; M: fig-leafed goosefoot
Summary of the method: as §3

chickweed [17] = assay: Test Example 3: weedkilling efficacy through soil treatment; N: chickweed
Summary of the method: as §3

catchweed [18] = assay: Test Example 3: weedkilling efficacy through soil treatment; O: catchweed
Summary of the method: as §3

birds-eye speedwell [19] = assay: Test Example 3: weedkilling efficacy through soil treatment; p: birds-eye speedwell
Summary of the method: as §3

directly sown rice [20] = assay: Test Example 3: soil treatment, effect on crop; b: directly sown rice
Summary of the method: as §3

corn [21] = assay: Test Example 3: soil treatment, effect on crop; c: corn
Summary of the method: as §3

soybean [22] = assay: Test Example 3: soil treatment, effect on crop; d: soybean
Summary of the method: as §3

wheat [23] = assay: Test Example 3: soil treatment, effect on crop; e: wheat
Summary of the method: as §3

beet [24] = assay: Test Example 3: soil treatment, effect on crop; f: beet
Summary of the method: as §3

rapeseed [25] = assay: Test Example 3: soil treatment, effect on crop; g: rapeseed
Summary of the method: as §3

crabgrass [26] = assay: Test Example 4: weedkilling efficacy by foliar treatment; D: crabgrass
Summary of the method: (§4)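 Seeds are spot-sown into sterilized diluvial soil and covered with about 1.5 cm of soil. After 14 days' greenhouse growth at 25 to 30° C, plants are sprayed on stems and leaves with diluted emulsion at the stated g/ha rate, then scored at 3 weeks.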

green foxtail [27] = assay: Test Example 4: weedkilling efficacy by foliar treatment; E: green foxtail
Summary of the method: as §4

barnyard grass [28] = assay: Test Example 4: weedkilling efficacy by foliar treatment; F: barnyard grass
Summary of the method: as §4

wild oat [29] = assay: Test Example 4: weedkilling efficacy by foliar treatment; G: wild oat
Summary of the method: as §4

black-grass [30] = assay: Test Example 4: weedkilling efficacy by foliar treatment; H: black-grass
Summary of the method: as §4

Italian ryegrass [31] = assay: Test Example 4: weedkilling efficacy by foliar treatment; I: Italian ryegrass
Summary of the method: as §4

common wind-grass [32] = assay: Test Example 4: weedkilling efficacy by foliar treatment; J: common wind-grass
Summary of the method: as §4

Indian mallow [33] = assay: Test Example 4: weedkilling efficacy by foliar treatment; K: Indian mallow
Summary of the method: as §4

redroot pigweed [34] = assay: Test Example 4: weedkilling efficacy by foliar treatment; L: redroot pigweed
Summary of the method: as §4

fig-leafed goosefoot [35] = assay: Test Example 4: weedkilling efficacy by foliar treatment; M: fig-leafed goosefoot
Summary of the method: as §4

chickweed [36] = assay: Test Example 4: weedkilling efficacy by foliar treatment; N: chickweed
Summary of the method: as §4

catchweed [37] = assay: Test Example 4: weedkilling efficacy by foliar treatment; O: catchweed
Summary of the method: as §4

birds-eye speedwell [38] = assay: Test Example 4: weedkilling efficacy by foliar treatment; p: birds-eye speedwell
Summary of the method: as §4

directly sown rice [39] = assay: Test Example 4: foliar treatment, effect on crop; b: directly sown rice
Summary of the method: as §4

corn [40] = assay: Test Example 4: foliar treatment, effect on crop; c: corn
Summary of the method: as §4

soybean [41] = assay: Test Example 4: foliar treatment, effect on crop; d: soybean
Summary of the method: as §4

wheat [42] = assay: Test Example 4: foliar treatment, effect on crop; e: wheat
Summary of the method: as §4

beet [43] = assay: Test Example 4: foliar treatment, effect on crop; f: beet
Summary of the method: as §4

rapeseed [44] = assay: Test Example 4: foliar treatment, effect on crop; g: rapeseed
Summary of the method: as §4

## CC1=C(c2ccccc2)C(=O)N(C(C)(C)C(=O)Nc2cc(C(F)F)ccn2)CO1 [B-2-54]
Barnyard grass [1]
  A (barnyard grass) weedkilling efficacy grade: 5 (weed kill ratio 90% or more, (practically complete withering))
Bulrush [2]
  B (bulrush) weedkilling efficacy grade: 5 (weed kill ratio 90% or more, (practically complete withering))
oval-leafed pondweed [3]
  C (oval-leafed pondweed) weedkilling efficacy grade: 5 (weed kill ratio 90% or more, (practically complete withering))
Transplanted rice
  a (transplanted rice) effect on crop grade: 5 (weed kill ratio 90% or more, (practically complete withering))
Barnyard grass [4]
  A (barnyard grass) weedkilling efficacy grade: 5 (weed kill ratio 90% or more, (practically complete withering))
Bulrush [5]
  B (bulrush) weedkilling efficacy grade: 5 (weed kill ratio 90% or more, (practically complete withering))
oval-leafed pondweed [6]
  C (oval-leafed pondweed) weedkilling efficacy grade: 5 (weed kill ratio 90% or more, (practically complete withering))
Crabgrass [7]
  D (crabgrass) weedkilling efficacy grade: 5 (weed kill ratio 90% or more, (practically complete withering))
Green foxtail [8]
  E (green foxtail) weedkilling efficacy grade: 5 (weed kill ratio 90% or more, (practically complete withering))
Barnyard grass [9]
  F (barnyard grass) weedkilling efficacy grade: 5 (weed kill ratio 90% or more, (practically complete withering))
Wild oat [10]
  G (wild oat) weedkilling efficacy grade: 5 (weed kill ratio 90% or more, (practically complete withering))
black-grass [11]
  H (black-grass) weedkilling efficacy grade: 5 (weed kill ratio 90% or more, (practically complete withering))
Italian ryegrass [12]
  I (Italian ryegrass) weedkilling efficacy grade: 5 (weed kill ratio 90% or more, (practically complete withering))
Common wind-grass [13]
  J (common wind-grass) weedkilling efficacy grade: 5 (weed kill ratio 90% or more, (practically complete withering))
Indian mallow [14]
  K (Indian mallow) weedkilling efficacy grade: 3 (weed kill ratio 40% or more, less than 70%)
Redroot pigweed [15]
  L (redroot pigweed) weedkilling efficacy grade: 4 (weed kill ratio 70% or more, less than 90%)
fig-leafed goosefoot [16]
  M (fig-leafed goosefoot) weedkilling efficacy grade: 3 (weed kill ratio 40% or more, less than 70%)
Chickweed [17]
  N (chickweed) weedkilling efficacy grade: 4 (weed kill ratio 70% or more, less than 90%)
Catchweed [18]
  O (catchweed) weedkilling efficacy grade: 4 (weed kill ratio 70% or more, less than 90%)
birds-eye speedwell [19]
  P (birds-eye speedwell) weedkilling efficacy grade: 5 (weed kill ratio 90% or more, (practically complete withering))
Directly sown rice [20]
  b (directly sown rice) effect on crop grade: 5 (weed kill ratio 90% or more, (practically complete withering))
Corn [21]
  c (corn) effect on crop grade: 2 (weed kill ratio 20% or more, less than 40%)
Soybean [22]
  d (soybean) effect on crop grade: 0 (weed kill ratio 5% or less (practically no effect))
Wheat [23]
  e (wheat) effect on crop grade: 0 (weed kill ratio 5% or less (practically no effect))
Beet [24]
  f (beet) effect on crop grade: 4 (weed kill ratio 70% or more, less than 90%)
Rapeseed [25]
  g (rapeseed) effect on crop grade: 4 (weed kill ratio 70% or more, less than 90%)
Crabgrass [26]
  D (crabgrass) weedkilling efficacy grade: 5 (weed kill ratio 90% or more, (practically complete withering))
Green foxtail [27]
  E (green foxtail) weedkilling efficacy grade: 5 (weed kill ratio 90% or more, (practically complete withering))
Barnyard grass [28]
  F (barnyard grass) weedkilling efficacy grade: 5 (weed kill ratio 90% or more, (practically complete withering))
Wild oat [29]
  G (wild oat) weedkilling efficacy grade: 5 (weed kill ratio 90% or more, (practically complete withering))
black-grass [30]
  H (black-grass) weedkilling efficacy grade: 5 (weed kill ratio 90% or more, (practically complete withering))
Italian ryegrass [31]
  I (Italian ryegrass) weedkilling efficacy grade: 5 (weed kill ratio 90% or more, (practically complete withering))
Common wind-grass [32]
  J (common wind-grass) weedkilling efficacy grade: 5 (weed kill ratio 90% or more, (practically complete withering))
Indian mallow [33]
  K (Indian mallow) weedkilling efficacy grade: 4 (weed kill ratio 70% or more, less than 90%)
Redroot pigweed [34]
  L (redroot pigweed) weedkilling efficacy grade: 4 (weed kill ratio 70% or more, less than 90%)
fig-leafed goosefoot [35]
  M (fig-leafed goosefoot) weedkilling efficacy grade: 4 (weed kill ratio 70% or more, less than 90%)
Chickweed [36]
  N (chickweed) weedkilling efficacy grade: 4 (weed kill ratio 70% or more, less than 90%)
Catchweed [37]
  O (catchweed) weedkilling efficacy grade: 4 (weed kill ratio 70% or more, less than 90%)
birds-eye speedwell [38]
  P (birds-eye speedwell) weedkilling efficacy grade: 4 (weed kill ratio 70% or more, less than 90%)
Directly sown rice [39]
  b (directly sown rice) effect on crop grade: 5 (weed kill ratio 90% or more, (practically complete withering))
Corn [40]
  c (corn) effect on crop grade: 3 (weed kill ratio 40% or more, less than 70%)
Soybean [41]
  d (soybean) effect on crop grade: 4 (weed kill ratio 70% or more, less than 90%)
Wheat [42]
  e (wheat) effect on crop grade: 0 (weed kill ratio 5% or less (practically no effect))
Beet [43]
  f (beet) effect on crop grade: 4 (weed kill ratio 70% or more, less than 90%)
Rapeseed [44]
  g (rapeseed) effect on crop grade: 4 (weed kill ratio 70% or more, less than 90%)
